SMILES strings stand for the structures. A value given as a limit tells only on which side of the number the result lay.

The target of this assay is T1, PLK1 (Homo sapiens, UniProt P53350).
T1 construct: endogenous in cells; host or cells: HeLa
Description: PLK1 protein degradation in HeLa cells, Western blotting (PLK1/GAPDH ratio). The format is cell-based. The following applies: 6 hours compound incubation; for DC50: measured only if the grade of Dmax is A or B; for Dmax: thymidine block and release, 10 points three-fold from 3 μM, PLK1 to GAPDH ratio, read-out: Dmax. The method, boiled down:
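Thymidine-synchronised HeLa cells (2 mM, 24 h) released 4 h into complete medium, then treated 6 h with compound in 10-point 3-fold dilutions from 3 μM. RIPA lysates (15 μg protein) run on SDS-PAGE; PLK1 Western blot normalised to GAPDH.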

T1 sequence (P53350 whole entry): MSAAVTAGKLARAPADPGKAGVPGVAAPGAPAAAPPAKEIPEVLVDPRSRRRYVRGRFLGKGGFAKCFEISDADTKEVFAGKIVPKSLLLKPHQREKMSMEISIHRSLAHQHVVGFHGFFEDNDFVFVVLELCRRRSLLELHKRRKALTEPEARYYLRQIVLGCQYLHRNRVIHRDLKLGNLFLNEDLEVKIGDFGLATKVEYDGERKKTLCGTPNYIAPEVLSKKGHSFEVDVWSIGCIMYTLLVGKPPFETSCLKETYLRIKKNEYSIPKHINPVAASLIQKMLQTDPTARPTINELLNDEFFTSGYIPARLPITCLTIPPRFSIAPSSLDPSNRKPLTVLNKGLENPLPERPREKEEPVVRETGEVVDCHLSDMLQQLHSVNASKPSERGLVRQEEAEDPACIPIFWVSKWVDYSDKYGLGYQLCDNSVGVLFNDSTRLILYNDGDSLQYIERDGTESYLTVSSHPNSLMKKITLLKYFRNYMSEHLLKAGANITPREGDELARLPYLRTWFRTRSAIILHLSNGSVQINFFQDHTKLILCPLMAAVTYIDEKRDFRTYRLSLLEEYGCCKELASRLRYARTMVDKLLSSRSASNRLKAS

Take `COc1cc(C(=O)NC2CCN(CCCCCCCCNc3cccc4nnn(C5CCC(=O)NC5=O)c(=O)c34)CC2)c(F)cc1Nc1ncc2c(n1)N(C1CCCC1)CC(F)(F)C(=O)N2C` (stereo not drawn) [Compound 79, 4-((9-cyclopentyl-7,7-difluoro-5-methyl-6-oxo-6,7,8,9-tetrahydro-5H-pyrimido[4,5-b][1,4]diazepin-2-yl)amino)-N-(1-(8-((3-(2,6-dioxopiperidin-3-yl)-4-oxo-3,4-dihydrobenzo[d][1,2,3]triazin-5-yl)amino)octyl)piperidin-4-yl)-2-fluoro-5-methoxybenzamide]: the DC50 is at most 50 nM and the Dmax is at least 80%.

As to `COc1cc(C(=O)NCCCCCCCc2cccc3c2CN(C2CCC(=O)NC2=O)C3=O)c(F)cc1Nc1ncc2c(n1)N(C1CCCC1)CC(F)(F)C(=O)N2C` (stereo not drawn) [Example 166, 4-((9-cyclopentyl-7,7-difluoro-5-methyl-6-oxo-6,7,8,9-tetrahydro-5H-pyrimido[4,5-b][1,4]diazepin-2-yl)amino)-N-(7-(2-(2,6-dioxopiperidin-3-yl)-1-oxoisoindolin-4-yl)heptyl)-2-fluoro-5-methoxybenzamide], the greatest degradation seen (Dmax) fell in the range of 60 to 80%.

Turning to `COc1cc(C(=O)N[C@H]2CCN(C(=O)CCN3CCN(c4cccc5c4C(=O)N(C4CCC(=O)NC4=O)C5=O)CC3)C2)c(F)cc1Nc1ncc2c(n1)N(C1CCCC1)CC(F)(F)C(=O)N2C` (stereo partly drawn) [Compound 131, 4-((9-cyclopentyl-7,7-difluoro-5-methyl-6-oxo-6,7,8,9-tetrahydro-5H-pyrimido[4,5-b][1,4]diazepin-2-yl)amino)-N-((3S)-1-(3-(4-(2-(2,6-dioxopiperidin-3-yl)-1,3-dioxoisoindolin-4-yl)piperazin-1-yl)propanoyl)pyrrolidin-3-yl)-2-fluoro-5-methoxybenzamide], the DC50 is at most 50 nM and the Dmax is at least 80%.

With `COc1cc(C(=O)N[C@H]2CCN(C(=O)CCC(=O)N3CCN(c4cccc5c4C(=O)N(C4CCC(=O)NC4=O)C5=O)CC3)C2)ccc1Nc1ncc2c(n1)N(C1CCCC1)CC(F)(F)C(=O)N2C` (stereo partly drawn) [Compound 141, 4-((9-cyclopentyl-7,7-difluoro-5-methyl-6-oxo-6,7,8,9-tetrahydro-5H-pyrimido[4,5-b][1,4]diazepin-2-yl)amino)-N-((3S)-1-(4-(4-(2-(2,6-dioxopiperidin-3-yl)-1,3-dioxoisoindolin-4-yl)piperazin-1-yl)-4-oxobutanoyl)pyrrolidin-3-yl)-3-methoxybenzamide], the half-maximal degradation concentration (DC50) was at most 50 nM and the Dmax was at least 80%.

On to `COc1cc(C(=O)NC2CCN(C(=O)CCOCCNc3cccc4c3C(=O)N(C3CCC(=O)NC3=O)C4=O)C2)c(F)cc1Nc1ncc2c(n1)N(C1CCCC1)CC(F)(F)C(=O)N2C` (stereo not drawn) [Compound 114, 4-((9-cyclopentyl-7,7-difluoro-5-methyl-6-oxo-6,7,8,9-tetrahydro-5H-pyrimido[4,5-b][1,4]diazepin-2-yl)amino)-N-(1-(3-(2-((2-(2,6-dioxopiperidin-3-yl)-1,3-dioxoisoindolin-4-yl)amino)ethoxy)propanoyl)pyrrolidin-3-yl)-2-fluoro-5-methoxybenzamide], for which the DC50 is at most 50 nM and the Dmax is at least 80%.

`COc1cc(C(=O)NC2CCN(CCOCCCNc3cccc4c3C(=O)N(C3CCC(=O)NC3=O)C4=O)C2)c(F)cc1Nc1ncc2c(n1)N(C1CCCC1)CC(F)(F)C(=O)N2C` (stereo not drawn) [Example 110, 4-((9-cyclopentyl-7,7-difluoro-5-methyl-6-oxo-6,7,8,9-tetrahydro-5H-pyrimido[4,5-b][1,4]diazepin-2-yl)amino)-N-(1-(2-(3-((2-(2,6-dioxopiperidin-3-yl)-1,3-dioxoisoindolin-4-yl)amino)propoxy)ethyl)pyrrolidin-3-yl)-2-fluoro-5-methoxybenzamide]: the DC50 is at most 50 nM and the Dmax is at least 80%.

In the case of `COc1cc(C(=O)N[C@@H]2CCN(C(=O)CCCCN3CCN(c4ccc5c(c4)C(=O)N(C4CCC(=O)NC4=O)C5=O)CC3)C2)c(F)cc1Nc1ncc2c(n1)N(C1CCCC1)CC(F)(F)C(=O)N2C` (stereo partly drawn) [Compound 139, 4-((9-cyclopentyl-7,7-difluoro-5-methyl-6-oxo-6,7,8,9-tetrahydro-5H-pyrimido[4,5-b][1,4]diazepin-2-yl)amino)-N-((3R)-1-(5-(4-(2-(2,6-dioxopiperidin-3-yl)-1,3-dioxoisoindolin-5-yl)piperazin-1-yl)pentanoyl)pyrrolidin-3-yl)-2-fluoro-5-methoxybenzamide], the DC50 was at most 50 nM and the Dmax was at least 80%.

Consider `COc1cc(C(=O)NCC2CCCN2CCOCCNc2cccc3c2C(=O)N(C2CCC(=O)NC2=O)C3=O)c(F)cc1Nc1ncc2c(n1)N(C1CCCC1)CC(F)(F)C(=O)N2C` (stereo not drawn) [Compound 124, 4-((9-cyclopentyl-7,7-difluoro-5-methyl-6-oxo-6,7,8,9-tetrahydro-5H-pyrimido[4,5-b][1,4]diazepin-2-yl)amino)-N-((1-(2-(2-((2-(2,6-dioxopiperidin-3-yl)-1,3-dioxoisoindolin-4-yl)amino)ethoxy)ethyl)pyrrolidin-2-yl)methyl)-2-fluoro-5-methoxybenzamide], for which the DC50 was at most 500 nM and the Dmax fell in the range of 60 to 80%.

On to `COc1cc(C(=O)NC2CCN(C(=O)CCCCNc3cccc4c3C(=O)N(C3CCC(=O)NC3=O)C4=O)C2)c(F)cc1Nc1ncc2c(n1)N(C1CCCC1)CC(F)(F)C(=O)N2C` (stereo not drawn) [Compound 117, 4-((9-cyclopentyl-7,7-difluoro-5-methyl-6-oxo-6,7,8,9-tetrahydro-5H-pyrimido[4,5-b][1,4]diazepin-2-yl)amino)-N-(1-(5-((2-(2,6-dioxopiperidin-3-yl)-1,3-dioxoisoindolin-4-yl)amino)pentanoyl)pyrrolidin-3-yl)-2-fluoro-5-methoxybenzamide], for which the DC50 is at most 50 nM and the Dmax was at least 80%.

Consider `COc1cc(C(=O)NC2CCN(CCOCCOCCNc3cccc4c3C(=O)N(C3CCC(=O)NC3=O)C4=O)CC2)c(F)cc1Nc1ncc2c(n1)N(C(C)C)CC(F)(F)C(=O)N2C` (stereo not drawn) [Example 100, 4-((7,7-difluoro-9-isopropyl-5-methyl-6-oxo-6,7,8,9-tetrahydro-5H-pyrimido[4,5-b][1,4]diazepin-2-yl)amino)-N-(1-(2-(2-(2-((2-(2,6-dioxopiperidin-3-yl)-1,3-dioxoisoindolin-4-yl)amino)ethoxy)ethoxy)ethyl)piperidin-4-yl)-2-fluoro-5-methoxybenzamide], for which the DC50 was at most 500 nM and the Dmax was 60 to 80%.

With `COc1cc(C(=O)N[C@H]2CCN(C(=O)CCC(=O)N3CCN(c4ccc5c(c4)C(=O)N(C4CCC(=O)NC4=O)C5=O)CC3)C2)ccc1Nc1ncc2c(n1)N(C1CCCC1)CC(F)(F)C(=O)N2C` (stereo partly drawn) [Compound 145, 4-((9-cyclopentyl-7,7-difluoro-5-methyl-6-oxo-6,7,8,9-tetrahydro-5H-pyrimido[4,5-b][1,4]diazepin-2-yl)amino)-N-((3S)-1-(4-(4-(2-(2,6-dioxopiperidin-3-yl)-1,3-dioxoisoindolin-5-yl)piperazin-1-yl)-4-oxobutanoyl)pyrrolidin-3-yl)-3-methoxybenzamide], the DC50 is above 500 nM and the Dmax was 60 to 80%.

For the origin of these results see US20230372498A1, “PLK1 SELECTIVE DEGRADATION INDUCING COMPOUND” (UPPTHERA, priority 2020, published 2023).
